{"source": "patent US20120302629A1", "about": "“BIOMARKERS FOR GOSSYPOL CHEMOTHERAPY AND METHODS OF TREATING DISEASE” (THE REGENTS OF THE UNIVERSITY OF MICHIGAN, priority 2009, published 2012)", "key": {"Bcl-xL": {"target": "Bcl-xL (Homo sapiens, UniProt Q07817)", "sequence (Q07817 whole entry)": "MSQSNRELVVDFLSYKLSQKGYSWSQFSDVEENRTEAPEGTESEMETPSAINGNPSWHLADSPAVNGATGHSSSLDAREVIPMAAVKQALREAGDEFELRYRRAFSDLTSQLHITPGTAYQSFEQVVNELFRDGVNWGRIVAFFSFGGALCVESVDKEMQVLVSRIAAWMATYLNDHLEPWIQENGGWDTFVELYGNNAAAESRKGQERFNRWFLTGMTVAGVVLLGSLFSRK", "conditions": "Wang et al., J. Med. Chem. 49:6139 (2006); cited from earlier work"}, "[1]": {"system": "long form of Mcl-1 mRNA in 2LMP cells", "assay": "Taqman real-time PCR", "assay_type": "cell-based, human", "conditions": "10 μm, 5-10 h time-points", "experimental": "(§1) Real-Time PCR: Total RNA was extracted by RNA miniprep kit (Sigma) from cells treated with or without of (−)-gossypol. cDNA was synthesized from 2 μg of RNA using cDNA reverse transcription kits (Applied Biosystems). Next, Taqman gene expression assays were performed using Noxa (Hs00560402_ml), Puma (Hs00248075_ml), Mcl-1 (Hs00172036_ml) gene specific primers/probe sets for real-time PCR in a ABI7900HT PCR machine. GAPDH (Hs99999905_ml) was used for normalization. Relative quantitation of mRNA was calculated by comparative cycle threshold (Ct) method."}, "Puma mRNA in 2LMP cells": {"system": "Puma mRNA in 2LMP cells", "assay": "Taqman real-time PCR", "assay_type": "cell-based, human", "conditions": "10 μm", "experimental": "as §1"}, "Noxa mRNA in 2LMP cells": {"system": "Noxa mRNA in 2LMP cells", "assay": "Taqman real-time PCR", "assay_type": "cell-based, human", "conditions": "10 μm", "experimental": "as §1"}, "PC-3 cells [2]": {"system": "PC-3 cells", "assay": "Apoptosis (Annexin V/PI flow cytometry) after siRNA knock-down", "assay_type": "cell-based, human", "experimental": "(§2) Cell Growth, Cell Death, and Apoptosis: Cell growth inhibition by (−)-gossypol was determined in a water-soluble tetrazolium (WST)-based assay, as described previously (Shangary et al., Proc. Natl. Acad. Sci. USA 105:3933 (2008)). Cell viability was determined by trypan blue due exclusion as described (Shangary et al., Proc. Natl. Acad. Sci. USA 105:3933 (2008)). Experiments were done in triplicate. To examine apoptosis, cells were stained with Annexin V and PI and analyzed by flow cytometery using an Annexin V-FITC staining kit (Roche Applied Science, Indianapolis, Ind.) according to manufacturer's instructions. Briefly, cells were treated and collected by centrifugation, washed with PBS once and then stained with annexinV-FITC and PI for 15 min at room temperature in the dark. Stained cells were analyzed in a FACS caliber flow cytometer. AnnexinV positive cells are considered as apoptotic cells.\n(§3) RNA interference: Gene specific double-stranded RNA oligonucleotide targeting Noxa, Puma, c-Myc, HIF1-α, E2F1#2, Bax, Bak, were purchased from Dharmacon RNAi technologies as Sigenome on-targetplus SMARTpool duplex (Lafayette, Colo.). SiRNA of E2F#1 was purchased from Santa Cruz. As a negative control, siRNA against GFP target sequence 5′-[…]-3′ was employed (Qiagen, Valencia, Calif.). Transfections were performed using Lipofectamine RNAiMAX, according to manufacturer's instructions (Invitrogen, Carlsbad, Calif.). (−)-Gossypol was added 24 h after transfection and cells were harvested after 18 h treatment of (−)-gossypol. Three independent knock down experiments were performed for each gene."}, "2LMP cells [3]": {"system": "2LMP cells", "assay": "Apoptosis (Annexin V/PI flow cytometry) after siRNA knock-down", "assay_type": "cell-based, human", "experimental": "as §2, §3"}, "Bcl-2": {"target": "Bcl-2 (Homo sapiens, UniProt P10415)", "sequence (P10415 whole entry)": "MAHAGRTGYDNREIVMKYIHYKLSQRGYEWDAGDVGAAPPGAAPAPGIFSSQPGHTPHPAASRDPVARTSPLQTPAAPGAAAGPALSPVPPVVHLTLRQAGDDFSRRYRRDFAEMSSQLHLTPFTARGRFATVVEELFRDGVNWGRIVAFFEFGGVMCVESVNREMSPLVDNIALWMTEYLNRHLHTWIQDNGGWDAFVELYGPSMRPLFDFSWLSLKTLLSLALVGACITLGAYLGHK", "conditions": "Wang et al., J. Med. Chem. 49:6139 (2006); cited from earlier work"}, "DU145 cells": {"system": "DU145 cells", "assay": "Cell death (trypan blue) after siRNA knock-down", "assay_type": "cell-based, human", "experimental": "as §2\nRNA interference: Gene specific double-stranded RNA oligonucleotide targeting Noxa, Puma, c-Myc, HIF1-α, E2F1#2, Bax, Bak, were purchased from Dharmacon RNAi technologies as Sigenome on-targetplus SMARTpool duplex (Lafayette, Colo.). SiRNA of E2F#1 was purchased from Santa Cruz. As a negative control, siRNA against GFP target sequence 5′-[…]-3′ was employed (Qiagen, Valencia, Calif.). […]"}, "[4]": {"system": "caspase-9 and -3/-7 in 2LMP cells", "assay": "Fluorometric caspase activity assays", "assay_type": "cell-based, human", "conditions": "5 μM", "experimental": "Fluorometric caspase activity assays: Cells were harvested in cell lysis buffer provided by Biovision research products (Mountain View, Calif.). 20 μg of protein was evaluated for caspase activity by incubating with fluorogenic caspase-3 or -9 substrate (EMD Biosciences) in reaction buffer (Biovision). Detection of cleavage of substrate Ac-DEVD-AFC (preferentially cleaved by caspase-3) and Ac-LEHD-AFC (preferentially cleaved by caspase-9) were measured at a λexc=400 nm and λem=505 nm using a Telcan Ultra plate reader (Männedorf, Switzerland). Experiments were performed in triplicate."}, "MEF Bax/Bak KO cells": {"system": "MEF Bax/Bak KO cells", "assay": "Apoptosis (Annexin V/PI flow cytometry) in MEF cells", "assay_type": "cell-based", "conditions": "for cells to undergo apoptosis: 24 h", "experimental": "as §2"}, "wild-type MEF cells": {"system": "wild-type MEF cells", "assay": "Apoptosis (Annexin V/PI flow cytometry) in MEF cells", "assay_type": "cell-based", "conditions": "24 h", "experimental": "as §2"}, "PC-3 cells [5]": {"system": "PC-3 cells", "assay": "Cell death by trypan blue dye exclusion", "assay_type": "cell-based, human", "conditions": "10 μM", "experimental": "as §2"}, "2LMP cells [6]": {"system": "2LMP cells", "assay": "Cell death by trypan blue dye exclusion", "assay_type": "cell-based, human", "experimental": "as §2"}, "PC-3 cells [7]": {"system": "PC-3 cells", "assay": "WST cell growth assay", "assay_type": "cell-based, human", "conditions": "(−)-gossypol 0.5 and 1 μM, 4 days", "experimental": "as §2"}, "2LMP cells [8]": {"system": "2LMP cells", "assay": "WST cell growth assay", "assay_type": "cell-based, human", "conditions": "(−)-gossypol 0.5 and 1 μM, 4 days", "experimental": "as §2"}, "MDA-MB-436 cells": {"system": "MDA-MB-436 cells", "assay": "WST cell growth assay", "assay_type": "cell-based, human", "conditions": "(−)-gossypol 0.5 and 1 μM, 4 days", "experimental": "as §2"}, "Mcl-1": {"target": "Mcl-1 (Homo sapiens, UniProt Q07820)", "sequence (Q07820 whole entry)": "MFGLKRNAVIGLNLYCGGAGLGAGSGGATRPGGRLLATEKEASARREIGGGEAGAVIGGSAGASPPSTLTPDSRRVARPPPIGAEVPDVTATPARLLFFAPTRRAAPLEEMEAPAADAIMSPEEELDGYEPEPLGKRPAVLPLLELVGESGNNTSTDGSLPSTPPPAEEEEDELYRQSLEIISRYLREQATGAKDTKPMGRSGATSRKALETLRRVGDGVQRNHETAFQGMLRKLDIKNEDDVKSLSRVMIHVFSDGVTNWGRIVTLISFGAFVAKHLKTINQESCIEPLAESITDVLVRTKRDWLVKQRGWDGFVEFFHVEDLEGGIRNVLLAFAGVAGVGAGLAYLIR", "conditions": "Wang et al., J. Med. Chem. 49:6139 (2006); cited from earlier work"}}, "data": [{"smiles": "Cc1cc2c(C(C)C)c(O)c(O)c(C=O)c2c(O)c1-c1c(C)cc2c(C(C)C)c(O)c(O)c(C=O)c2c1O", "note": "[(−)-gossypol]", "values": [{"measurement": "binding affinity", "setting": "Bcl-xL", "result": "low to sub-micromolar"}, {"measurement": "increase of the long form of Mcl-1 mRNA", "setting": "[1]", "result": "less than 3 fold"}, {"measurement": "Puma mRNA increased", "setting": "Puma mRNA in 2LMP cells; 2.5 h time-point", "result": 1.4, "unit": "fold"}, {"measurement": "Puma mRNA increased", "setting": "Puma mRNA in 2LMP cells; 5 h time-point", "result": 5.4, "unit": "fold"}, {"measurement": "Puma mRNA increased", "setting": "Puma mRNA in 2LMP cells; 7.5 h time-point", "result": 5, "unit": "fold"}, {"measurement": "Puma mRNA increased", "setting": "Puma mRNA in 2LMP cells; 10 h time-point", "result": 4.3, "unit": "fold"}, {"measurement": "mRNA levels of Noxa increased", "setting": "Noxa mRNA in 2LMP cells; 2.5 h time-point", "result": 2.3, "unit": "fold"}, {"measurement": "mRNA levels of Noxa increased", "setting": "Noxa mRNA in 2LMP cells; 5 h time-point", "result": 9, "unit": "fold"}, {"measurement": "mRNA levels of Noxa increased", "setting": "Noxa mRNA in 2LMP cells; 7.5 h time-point", "result": 24, "unit": "fold"}, {"measurement": "mRNA levels of Noxa increased", "setting": "Noxa mRNA in 2LMP cells; 10 h time-point", "result": 37, "unit": "fold"}, {"measurement": "cell death induction blocked by knock-down of c-Myc", "setting": "PC-3 cells [2]; 10 μM, c-Myc siRNA", "result": "> 70", "unit": "%"}, {"measurement": "effect of double knockdown of Bax/Bak on apoptosis induction", "setting": "PC-3 cells [2]; 18 h, Bax and Bak siRNA", "result": "no effect"}, {"measurement": "apoptosis induction blocked by double knockdown of Bax/Bak", "setting": "2LMP cells [3]; 10 μM, 18 h, Bax and Bak siRNA", "result": "approximately 70%"}, {"measurement": "cell death induction blocked by knock-down of c-Myc", "setting": "2LMP cells [3]; 10 μM, c-Myc siRNA", "result": "> 70", "unit": "%"}, {"measurement": "apoptosis induction decreased by knock-down of Puma", "setting": "2LMP cells [3]; 18 h, Puma siRNA", "result": "30-50%"}, {"measurement": "apoptosis induction reduced by knock-down of Noxa", "setting": "2LMP cells [3]; all the concentrations tested, 18 h, Noxa siRNA", "result": "> 50", "unit": "%"}, {"measurement": "binding affinity", "setting": "Bcl-2", "result": "low to sub-micromolar"}, {"measurement": "effect of double knockdown of Bax/Bak on apoptosis induction", "setting": "DU145 cells; 18 h, Bax and Bak siRNA", "result": "modestly reduced"}, {"measurement": "cell death induction upon c-Myc knock-down", "setting": "DU145 cells; p53-mutated, c-Myc siRNA", "result": "effective blockage"}, {"measurement": "activity of caspase-9 and -3/-7 induced", "setting": "[4]; 24 h treatment", "result": 7, "unit": "fold"}, {"measurement": "activity of caspase-9 and -3/-7 induced", "setting": "[4]; 48 h treatment", "result": "> 60", "unit": "fold"}, {"measurement": "cells to undergo apoptosis", "setting": "MEF Bax/Bak KO cells; 5 μM", "result": 11, "unit": "%"}, {"measurement": "cells to undergo apoptosis", "setting": "MEF Bax/Bak KO cells; 10 μM", "result": 13, "unit": "%"}, {"measurement": "cell death reduced in the Bax/Bak double knock-out", "setting": "MEF Bax/Bak KO cells; 20 μM, versus wild-type MEF", "result": 25, "unit": "%"}, {"measurement": "cells to undergo apoptosis", "setting": "wild-type MEF cells; 5 μM", "result": 29, "unit": "%"}, {"measurement": "cells to undergo apoptosis", "setting": "wild-type MEF cells; 10 μM", "result": 33, "unit": "%"}, {"measurement": "cells to undergo cell death", "setting": "PC-3 cells [5]; 24 hour-treatment", "result": "30-40%"}, {"measurement": "cells lost their viability", "setting": "PC-3 cells [5]; 24 h time-point", "result": "approximately 40%"}, {"measurement": "cells lost their viability", "setting": "PC-3 cells [5]; 36 h time-point", "result": "approximately 70%"}, {"measurement": "cells lost their viability", "setting": "PC-3 cells [5]; 48 h time-point", "result": "~100", "unit": "%"}, {"measurement": "cell death at time-points earlier than 12 h", "setting": "PC-3 cells [5]; time course", "result": "no significant cell death"}, {"measurement": "cells killed", "setting": "2LMP cells [6]; 2.5 μM, 48 h treatment", "result": 14, "unit": "%"}, {"measurement": "cells to undergo cell death", "setting": "2LMP cells [6]; 10 μM, 24 hour-treatment (FIG. 1)", "result": "30-40%"}, {"measurement": "cells lost their viability", "setting": "2LMP cells [6]; 10 μM, 24 h time-point", "result": "approximately 40%"}, {"measurement": "cells lost their viability", "setting": "2LMP cells [6]; 10 μM, 36 h time-point", "result": "approximately 70%"}, {"measurement": "cells lost their viability", "setting": "2LMP cells [6]; 10 μM, 48 h time-point", "result": "~100", "unit": "%"}, {"measurement": "cell death at time-points earlier than 12 h", "setting": "2LMP cells [6]; 10 μM, time course", "result": "no significant cell death"}, {"measurement": "sensitization to ABT-737", "setting": "PC-3 cells [7]", "result": "effectively sensitize"}, {"measurement": "sensitization to ABT-737", "setting": "2LMP cells [8]", "result": "effectively sensitize"}, {"measurement": "sensitization to ABT-737", "setting": "MDA-MB-436 cells", "result": "effectively sensitize"}, {"measurement": "binding affinity", "setting": "Mcl-1", "result": "low to sub-micromolar"}]}]}
